Test results published in patent US8841413B2, “Antidiabetic compounds” (Cadila Healthcare Limited, priority 2006, dated 2014).
Like-named read-outs stand apart in the source and are kept apart here.

Columns and labels:
[1] = Stability against liver microsomes; type: in vitro ADME, human; settings: 2 μM, 37° C.; for half-life: human, microsomes, read-out: half-life (t1/2) with liver microsomes
Protocol: (§1) Reactions were terminated by the addition of TFA/H2O (15 mL, 10% (v/v)). […] The column was equilibrated with TFA/H2O, at a flow rate of 1 mL/min. […] The absorbance was monitored at 206 nm using UV detector and peaks were collected manually prior to ESI-MS analysis.

Human GLP-1 receptor = target: T1, Human GLP-1 receptor (Homo sapiens, UniProt P43220); type: cell-based; settings: for activity in human GLP-1 receptor assay (in words): in vitro, dipeptides, FIG. 3
T1 construct: The full-length cDNA was cloned in pcDNA3.1(+); expressed in transfected cells
Protocol: The novel peptidomimetics were screened for Human GLP-1 receptor (HGLP-1 R) agonist activity (in vitro), using the cAMP cell-based assay, in stably transfected CHO/human GLP1R cells. […] CHO cells were grown in Ham's F12 medium containing L-Glutamine (2 mM), HEPES (25 mM), NaHCO3 (1.1 g/L) and supplemented with NewBorn Calf Serum (NBCS; 10%), Penicillin (50 U/ml (v/v)) and Streptomycin (50 ug/ml (v/v)). Cells were split every 3 days 1:8.
The cDNA encoding the human GLP-1 receptor was isolated by RT-PCR according to standard protocol. The full-length cDNA was cloned in pcDNA3.1(+). […] Clones expressing the receptor were generated by G418 (800 μg/ml active, Sigma) selection. The stable clones were thereafter maintained at 500 ug/ml (G418). The selected clone was used between passages 9-25 for cAMP assays.
The trypsin was inactivated using Ham's F12 medium containing 10% NBCS and the cells were suspended in 2 ml of complete medium. […] The medium was aspirated off from the 12 well plate and the cells were washed once using Ham's F12 (plain). […] The cells were incubated with the test compounds for 30 min in humidified atmosphere and 37° C. After the incubation, the medium was removed and cells were washed once with plain Ham's F12. Subsequently, the cells were lysed by adding 500 ul of ice cold 0.1 N HCl to each well and shaking for 30 minutes at 200 rpm. […] The total cAMP was estimated from the sample according to the manufacturer's protocol using Cyclic AMP immunoassay kit (R&D systems, Minneapolis. MN). The remaining supernatant is used to determine the protein concentration using micro BCA (Sigma). Data is calculated as percent of control (Vehicle: water) and expressed as Mean±SD.

[2] = Stability in simulated intestinal fluid; type: in vitro ADME; settings: 2 μM, 37° C., pH 7.5; for half-life: simulated gi fluid, read-out: half-life (t1/2) in simulated intestinal fluid
Protocol: as §1

DPP IV = DPP IV (Homo sapiens, UniProt P27487); assay: Stability against DPP IV enzyme; type: in vitro ADME; settings: 2 μM, 37° C.; for half-life: read-out: half-life (t1/2) with DPP-IV enzyme
Protocol: as §1

[3] = Stability in simulated gastric fluid; type: in vitro ADME; settings: 2 μM, 37° C., pH 1.5, pepsin; for half-life: simulated gi fluid, read-out: half-life (t1/2) in simulated gastric fluid
Protocol: as §1

[4] = Stability in human plasma; type: in vitro ADME; settings: 2 μM, 37° C.; for half-life: human, plasma, read-out: half-life (t1/2) in human plasma
Protocol: as §1

human glucagon receptor = target: T2, human glucagon receptor (Homo sapiens, UniProt P47871); assay: In vitro human glucagon antagonist activity (inhibition of cAMP production), CHO/human glucagon R cells; type: cell-based; settings: in vitro, FIG. 3 / FIG. 4
T2 construct: The full-length cDNA was cloned in pcDNA3.1(Invitrogen); expressed in transfected cells
Protocol: CHO cells were grown in Ham's F12 medium containing L-Glutamine (2 mM), HEPES (25 mM), NaHCO3 (1.1 g/L) and supplemented with newborn Calf Serum (NBCS; 10%), Penicillin (50 U/ml (v/v)) and Streptomycin (50 ug/ml (v/v)). Cells were split every 3 days 1:8.
The full-length cDNA was cloned in pcDNA3.1(Invitrogen). […] Clones expressing the receptor were generated by G418 (800 μg/ml active, Sigma) selection. The stable clones were thereafter maintained at 500 ug/ml (G418). The selected clone was used between passages 9-25 for cAMP assays.
The trypsin was inactivated using Ham's F12 medium containing 10% NBCS and the cells were suspended in 2 ml of complete medium. […] The medium was aspirated off from the 12 well plate and the cells were washed once using Ham's F12 (plain). […] After the incubation; the medium was removed and cells were washed once with plain Ham's F12. Subsequently, the cells were lysed by adding 500 ul of ice cold 0.1 N HCl to each well and shaking for 30 minutes at 200 rpm. The cells were then scrapped, the lysate was collected in micro centrifuge tubes and centrifuged at 12000 rpm for 10 min to remove the debris. 300 ul of supernatant from each micro-centrifuge tube was then removed into a glass tube and dried under N2 for 30 min, for cAMP estimation. The total cAMP was estimated from the sample according to the manufacturer's protocol using Cyclic AMP immunoassay kit (R&D systems, Minneapolis: MN). The remaining supernatant is used to determine the protein concentration using micro BCA (Sigma). Data is calculated as percent of control (Vehicle: water) and expressed as Mean+SD.

T2 sequence (P47871 26-477): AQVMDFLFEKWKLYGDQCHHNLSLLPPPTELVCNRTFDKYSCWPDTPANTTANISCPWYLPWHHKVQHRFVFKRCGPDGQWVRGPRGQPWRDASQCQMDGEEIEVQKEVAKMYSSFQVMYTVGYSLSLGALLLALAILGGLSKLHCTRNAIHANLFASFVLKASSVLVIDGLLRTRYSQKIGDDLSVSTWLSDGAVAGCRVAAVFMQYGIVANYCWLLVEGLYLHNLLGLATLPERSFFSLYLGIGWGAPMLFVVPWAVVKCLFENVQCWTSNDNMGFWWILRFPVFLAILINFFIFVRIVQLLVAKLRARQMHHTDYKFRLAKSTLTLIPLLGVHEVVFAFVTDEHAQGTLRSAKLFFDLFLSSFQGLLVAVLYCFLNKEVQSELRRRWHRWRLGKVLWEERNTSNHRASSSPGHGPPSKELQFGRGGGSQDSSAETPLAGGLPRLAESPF
T1 sequence (P43220 24-463): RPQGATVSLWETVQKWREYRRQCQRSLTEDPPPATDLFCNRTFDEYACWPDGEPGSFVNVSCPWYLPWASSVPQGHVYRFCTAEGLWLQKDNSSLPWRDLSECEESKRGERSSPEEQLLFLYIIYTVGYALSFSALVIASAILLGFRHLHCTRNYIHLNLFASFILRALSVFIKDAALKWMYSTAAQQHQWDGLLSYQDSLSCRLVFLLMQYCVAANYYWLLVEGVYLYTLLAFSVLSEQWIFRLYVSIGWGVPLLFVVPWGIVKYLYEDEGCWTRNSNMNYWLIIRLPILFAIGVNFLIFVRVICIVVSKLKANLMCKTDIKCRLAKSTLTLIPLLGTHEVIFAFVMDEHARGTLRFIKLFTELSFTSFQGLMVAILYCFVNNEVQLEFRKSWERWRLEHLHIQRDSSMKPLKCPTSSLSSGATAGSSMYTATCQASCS
Chain of DPP IV (P27487 whole entry, species assumed): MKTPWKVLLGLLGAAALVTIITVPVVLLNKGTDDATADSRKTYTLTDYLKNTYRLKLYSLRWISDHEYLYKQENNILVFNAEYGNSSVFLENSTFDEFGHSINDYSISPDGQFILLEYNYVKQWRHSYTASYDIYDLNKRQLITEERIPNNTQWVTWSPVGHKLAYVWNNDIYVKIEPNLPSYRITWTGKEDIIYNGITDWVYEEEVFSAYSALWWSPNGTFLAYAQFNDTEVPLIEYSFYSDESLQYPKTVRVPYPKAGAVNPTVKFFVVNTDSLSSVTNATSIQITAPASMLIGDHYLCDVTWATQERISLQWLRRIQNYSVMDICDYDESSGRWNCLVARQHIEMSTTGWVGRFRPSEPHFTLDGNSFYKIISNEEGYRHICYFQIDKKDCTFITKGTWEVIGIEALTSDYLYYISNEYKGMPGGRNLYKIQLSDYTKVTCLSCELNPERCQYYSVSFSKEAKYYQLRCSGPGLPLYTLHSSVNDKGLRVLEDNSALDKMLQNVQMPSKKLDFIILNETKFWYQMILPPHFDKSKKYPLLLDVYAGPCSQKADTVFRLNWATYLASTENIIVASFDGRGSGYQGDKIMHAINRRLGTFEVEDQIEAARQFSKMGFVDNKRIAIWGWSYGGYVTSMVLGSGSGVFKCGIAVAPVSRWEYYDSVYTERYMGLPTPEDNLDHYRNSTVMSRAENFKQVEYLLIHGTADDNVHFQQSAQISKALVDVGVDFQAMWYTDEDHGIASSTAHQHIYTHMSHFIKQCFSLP

CCc1cc(OC)ccc1-c1ccc(CC(NC(=O)[C@H](CC(=O)O)NC(=O)[C@H](CO)NC(=O)[C@@H](NC(=O)[C@H](Cc2ccccc2)NC(=O)[C@@H](NC(=O)CNC(=O)[C@H](CCC(N)=O)NC(=O)C(C)(C)NC(=O)[C@@H](N)Cc2c[nH]cn2)[C@@H](C)O)[C@@H](C)O)C(=O)NC(Cc2ccc(-c3ccccc3C)cc2)C(N)=O)cc1 (single isomer, unassigned) [compound 13]
% degradation in 24 h when incubated with liver microsomes [1]: 86% | half-life [1]: 120 min | Human GLP-1 R activity (cAMP release), % activity with respect to control (Human GLP-1 receptor; 1 nM test compound): 60 ± 0.12% | Human GLP-1 R activity (cAMP release), % activity with respect to control (Human GLP-1 receptor; 10 nM test compound): 92 ± 0.15% | Human GLP-1 R activity (cAMP release), % activity with respect to control (Human GLP-1 receptor; 100 nM test compound): 98 ± 0.18% | Human GLP-1 R activity (cAMP release), % activity with respect to control (Human GLP-1 receptor; 1 μM test compound): 99 ± 0.03% | Human GLP-1 R activity (cAMP release), % activity with respect to control (Human GLP-1 receptor; 10 μM test compound): 99 ± 0.09% | % degradation in 24 h when incubated with simulated intestinal fluid [2]: 00% | half-life [2]: > 1440 min | % degradation in 24 h when incubated with DPP-IV enzyme (DPP IV): 00% | half-life (DPP IV): > 1440 min | % degradation in 24 h when incubated with simulated gastric fluid [3]: 50% | half-life [3]: 240 min | % degradation in 24 h when incubated with human plasma [4]: 00% | half-life [4]: > 1440 min

CCc1cc(OC)ccc1-c1ccc(CC(NC(=O)[C@H](CC(=O)O)NC(=O)[C@H](CO)NC(=O)[C@@H](NC(=O)[C@H](Cc2ccccc2)NC(=O)[C@@H](NC(=O)CNC(=O)[C@H](CCC(N)=O)NC(=O)C(C)(C)NC(=O)[C@@H](N)Cc2c[nH]cn2)[C@@H](C)O)[C@@H](C)O)C(=O)NC(Cc2ccc(-c3ccccc3C)nc2)C(N)=O)cc1 (single isomer, unassigned) [compound 14]
% degradation in 24 h when incubated with liver microsomes [1]: 84% | half-life [1]: 120 min | Human GLP-1 R activity (cAMP release), % activity with respect to control (Human GLP-1 receptor; 1 nM test compound): 62 ± 0.11% | Human GLP-1 R activity (cAMP release), % activity with respect to control (Human GLP-1 receptor; 10 nM test compound): 94 ± 0.09% | Human GLP-1 R activity (cAMP release), % activity with respect to control (Human GLP-1 receptor; 100 nM test compound): 99 ± 0.06% | Human GLP-1 R activity (cAMP release), % activity with respect to control (Human GLP-1 receptor; 1 μM test compound): 99 ± 0.14% | Human GLP-1 R activity (cAMP release), % activity with respect to control (Human GLP-1 receptor; 10 μM test compound): 99 ± 0.19% | % degradation in 24 h when incubated with simulated intestinal fluid [2]: 00% | half-life [2]: > 1440 min | % degradation in 24 h when incubated with DPP-IV enzyme (DPP IV): 00% | half-life (DPP IV): > 1440 min | % degradation in 24 h when incubated with simulated gastric fluid [3]: 55% | half-life [3]: 240 min | % degradation in 24 h when incubated with human plasma [4]: 00% | half-life [4]: > 1440 min

CCc1cc(OC)ccc1-c1ccc(CC(NC(=O)[C@H](CC(=O)O)NC(=O)[C@H](CO)NC(=O)[C@@H](NC(=O)[C@H](Cc2ccccc2)NC(=O)[C@@H](NC(=O)CNC(=O)[C@H](CCC(N)=O)NC(=O)C(C)(C)NC(=O)[C@@H](N)Cc2c[nH]cn2)[C@@H](C)O)[C@@H](C)O)C(=O)NC(Cc2ccc(-c3ccccc3F)cc2)C(N)=O)cc1 (single isomer, unassigned) [compound 15]
% degradation in 24 h when incubated with liver microsomes [1]: 85% | half-life [1]: 120 min | Human GLP-1 R activity (cAMP release), % activity with respect to control (Human GLP-1 receptor; 1 nM test compound): 66 ± 0.022% | Human GLP-1 R activity (cAMP release), % activity with respect to control (Human GLP-1 receptor; 10 nM test compound): 97 ± 0.46% | Human GLP-1 R activity (cAMP release), % activity with respect to control (Human GLP-1 receptor; 100 nM test compound): 99 ± 0.41% | Human GLP-1 R activity (cAMP release), % activity with respect to control (Human GLP-1 receptor; 1 μM test compound): 99 ± 0.66% | Human GLP-1 R activity (cAMP release), % activity with respect to control (Human GLP-1 receptor; 10 μM test compound): 99 ± 0.03% | % degradation in 24 h when incubated with simulated intestinal fluid [2]: 00% | half-life [2]: > 1440 min | % degradation in 24 h when incubated with DPP-IV enzyme (DPP IV): 00% | half-life (DPP IV): > 1440 min | % degradation in 24 h when incubated with simulated gastric fluid [3]: 45% | half-life [3]: 240 min | % degradation in 24 h when incubated with human plasma [4]: 00% | half-life [4]: > 1440 min

CCc1cc(OC)ccc1-c1ccc(CC(NC(=O)[C@H](CC(=O)O)NC(=O)[C@H](CO)NC(=O)[C@@H](NC(=O)[C@H](Cc2ccccc2)NC(=O)[C@@H](NC(=O)CNC(=O)[C@H](CCC(N)=O)NC(=O)C(C)(C)NC(=O)[C@@H](N)Cc2c[nH]cn2)[C@@H](C)O)[C@@H](C)O)C(=O)NC(Cc2ccc(-c3ccccc3C(F)(F)F)cc2)C(N)=O)cc1 (single isomer, unassigned) [compound 16]
% degradation in 24 h when incubated with liver microsomes [1]: 84% | half-life [1]: 120 min | Human GLP-1 R activity (cAMP release), % activity with respect to control (Human GLP-1 receptor; 1 nM test compound): 69 ± 0.09% | Human GLP-1 R activity (cAMP release), % activity with respect to control (Human GLP-1 receptor; 10 nM test compound): 98 ± 0.07% | Human GLP-1 R activity (cAMP release), % activity with respect to control (Human GLP-1 receptor; 100 nM test compound): 99 ± 0.04% | Human GLP-1 R activity (cAMP release), % activity with respect to control (Human GLP-1 receptor; 1 μM test compound): 99 ± 0.01% | Human GLP-1 R activity (cAMP release), % activity with respect to control (Human GLP-1 receptor; 10 μM test compound): 99 ± 0.08% | % degradation in 24 h when incubated with simulated intestinal fluid [2]: 00% | half-life [2]: > 1440 min | % degradation in 24 h when incubated with DPP-IV enzyme (DPP IV): 00% | half-life (DPP IV): > 1440 min | % degradation in 24 h when incubated with simulated gastric fluid [3]: 43% | half-life [3]: 240 min | % degradation in 24 h when incubated with human plasma [4]: 00% | half-life [4]: > 1440 min

Bip(OMe)-Bip(2CF3)
activity in human GLP-1 receptor assay (in words) (Human GLP-1 receptor): antagonistic activity | activity in human Glucagon receptor assay (in words) (human glucagon receptor): antagonistic activity

Bip(OMe)-Bip(2F)
activity in human GLP-1 receptor assay (in words) (Human GLP-1 receptor): antagonistic activity | activity in human Glucagon receptor assay (in words) (human glucagon receptor): antagonistic activity

Bip(OMe)-Bip(2Me)
activity in human GLP-1 receptor assay (in words) (Human GLP-1 receptor): antagonistic activity | activity in human Glucagon receptor assay (in words) (human glucagon receptor): antagonistic activity

Bip(OMe)-Bip(Pyr)
activity in human GLP-1 receptor assay (in words) (Human GLP-1 receptor): antagonistic activity | activity in human Glucagon receptor assay (in words) (human glucagon receptor): antagonistic activity
